One assay addresses TAK1/TAB1 (Homo sapiens) (UniProt Q15750+O43318). Nature of the assay: Inhibition of tracer 236 binding to recombinant human His-tagged full length TAK1-TAB1 expressed in baculovirus expression system at 10 uM incubated for 60 mins by Lanthascreen assay relative to control.
In assay [1] the target is Tyrosine-protein kinase Fgr (Homo sapiens) (UniProt P09769). Nature of the assay: Inhibition of recombinant human C-terminal His-tagged full length FGR expressed in baculovirus expression system using Tyr 02 as substrate at 10 uM incubated for 60 mins by Z'-Lyte assay relative to control.
The target in assay [2] is Dual specificity protein kinase CLK2 (Homo sapiens) (UniProt P49760). Nature of the assay: Inhibition of recombinant human GST-tagged CLK2 (137 to 498 residues) expressed in baculovirus expression system using Ser/Thr 06 as substrate at 10 uM incubated for 60 mins by Z'-Lyte assay relative to control.
Assay [3] has as its target Protein kinase C theta type (Homo sapiens) (UniProt Q04759). Nature of the assay: Inhibition of recombinant human His-tagged full length PKCtheta expressed in baculovirus expression system using Ser/Thr 07 as substrate at 10 uM incubated for 60 mins by Z'-lyte assay relative to control.
Assay [4] concerns the target Dual specificity tyrosine-phosphorylation-regulated kinase 1A (Homo sapiens) (UniProt Q13627). Nature of the assay: Inhibition of recombinant human GST-tagged full length DYRK1A expressed in baculovirus expression system using Ser/Thr 18 as substrate at 10 uM incubated for 60 mins by Z'-Lyte assay relative to control.
The target of assay [5] is Phosphatidylinositol 3-kinase C2 domain-containing subunit gamma (Homo sapiens) (UniProt O75747). The assay can be described thus: Inhibition of recombinant human N-terminal GST-tagged PI3K-gamma (468 to 1203 residues) expressed in insect expression system using PI lipid kinase substrate mixture as substrate at 10 uM incubated for 60 mins by Adapta assay relative to control.

For assay [6], the target named is Serine/threonine-protein kinase NLK (Homo sapiens) (UniProt Q9UBE8). The assay can be described thus: Inhibition of tracer 178 binding to recombinant human GST-tagged full length NLK expressed in baculovirus expression system at 10 uM incubated for 60 mins by Lanthascreen assay relative to control. A general note: In TR-FRET formats the signal depends on donor and acceptor labels being close together.

The target of assay [7] is Insulin receptor (Homo sapiens) (UniProt P06213). Nature of the assay: Inhibition of recombinant human GST-tagged InsR (1011 to 1382 residues) expressed in baculovirus expression system using Tyr 01 as substrate at 10 uM incubated for 60 mins by Z'-lyte assay relative to control.
Assay [8] addresses Epithelial discoidin domain-containing receptor 1 (Homo sapiens) (UniProt Q08345). The assay can be described thus: Inhibition of tracer 178 binding to recombinant human GST-tagged DDR1 (440 to 876 residues ) expressed in baculovirus expression system at 10 uM incubated for 60 mins by Lanthascreen assay relative to control.
Assay [9] addresses Mitogen-activated protein kinase kinase kinase 9 (Homo sapiens) (UniProt P80192). Nature of the assay: Inhibition of recombinant human GST-tagged MLK1 (1 to 500 residues) expressed in baculovirus expression system using Ser/Thr 07 as substrate at 10 uM incubated for 60 mins by Z'-lyte assay relative to control.
Assay [10] concerns the target Serine/threonine-protein kinase Sgk1 (Homo sapiens) (UniProt O00141). Nature of the assay: Inhibition of recombinant human GST-tagged full length SGK1 (60 to 431 residues) expressed in baculovirus expression system using Ser/Thr 06 as substrate at 10 uM incubated for 60 mins by Z'-Lyte assay relative to control.
Assay [11] concerns the target Tyrosine-protein kinase Srms (Homo sapiens) (UniProt Q9H3Y6). Nature of the assay: Inhibition of recombinant human GST-tagged full length SRM expressed in baculovirus expression system using Tyr 01 as substrate at 10 uM incubated for 60 mins by Z'-Lyte assay relative to control.
The target in assay [12] is Mitogen-activated protein kinase 9 (Homo sapiens) (UniProt P45984). Nature of the assay: Inhibition of recombinant human His-tagged full length JNK2 expressed in baculovirus expression system using Ser/Thr 04 as substrate at 10 uM incubated for 60 mins by Z'-lyte assay relative to control.
Chain of Mitogen-activated protein kinase 9 (Homo sapiens) (P45984 whole entry, looked up): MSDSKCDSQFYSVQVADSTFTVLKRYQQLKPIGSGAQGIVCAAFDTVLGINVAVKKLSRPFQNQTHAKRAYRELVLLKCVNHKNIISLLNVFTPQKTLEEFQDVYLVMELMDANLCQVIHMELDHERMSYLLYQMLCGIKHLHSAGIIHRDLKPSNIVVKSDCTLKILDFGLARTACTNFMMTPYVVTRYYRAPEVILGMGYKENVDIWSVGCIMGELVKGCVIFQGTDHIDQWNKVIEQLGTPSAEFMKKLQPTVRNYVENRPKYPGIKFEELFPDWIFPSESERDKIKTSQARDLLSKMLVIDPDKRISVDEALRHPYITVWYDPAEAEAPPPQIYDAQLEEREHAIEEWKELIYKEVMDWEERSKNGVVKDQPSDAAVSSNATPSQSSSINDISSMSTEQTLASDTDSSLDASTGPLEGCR
For assay [13], the target named is Calcium/calmodulin-dependent protein kinase kinase 1 (Homo sapiens) (UniProt Q8N5S9). Nature of the assay: Inhibition of tracer 236 binding to recombinant human GST-tagged full length CAMKK1 expressed in Escherichia coli expression system at 10 uM incubated for 60 mins by Lanthascreen assay relative to control.
Assay [14] deals with Homeodomain-interacting protein kinase 1 (Homo sapiens) (UniProt Q86Z02). The assay can be described thus: Inhibition of recombinant human N-terminal GST-tagged HIPK1 (158 to 555 residues) expressed in baculovirus expression system using Ser/Thr 09 as substrate at 10 uM incubated for 60 mins by Z'-Lyte assay relative to control.
The target of assay [15] is Calcium/calmodulin-dependent protein kinase type 1D (Homo sapiens) (UniProt Q8IU85). Nature of the assay: Inhibition of recombinant human His-tagged full length CAMK1delta expressed in baculovirus expression system using Ser/Thr 25 as substrate at 10 uM incubated for 60 mins by Z'-Lyte assay relative to control.
Assay [16] addresses Beta-adrenergic receptor kinase 1 (Homo sapiens) (UniProt P25098). Nature of the assay: Inhibition of recombinant human His-tagged full length GRK2 expressed in baculovirus expression system using Ser/Thr 16 as substrate at 10 uM incubated for 60 mins by Z'-Lyte assay relative to control.
Assay [17] deals with Tyrosine-protein kinase TXK (Homo sapiens) (UniProt P42681). The assay can be described thus: Inhibition of recombinant human N-terminal GST-tagged TXK (260 to 527 residues) expressed in baculovirus expression system using Tyr 06 as substrate at 10 uM incubated for 60 mins by Z'-Lyte assay relative to control.
The target in assay [18] is Protein kinase C zeta type (Homo sapiens) (UniProt Q05513). The assay can be described thus: Inhibition of recombinant human untagged full length PKCzeta expressed in baculovirus expression system using Ser/Thr 07 as substrate at 10 uM incubated for 60 mins by Z'-lyte assay relative to control.
Chain of Protein kinase C zeta type (Homo sapiens) (Q05513 whole entry, the tested form may be a part): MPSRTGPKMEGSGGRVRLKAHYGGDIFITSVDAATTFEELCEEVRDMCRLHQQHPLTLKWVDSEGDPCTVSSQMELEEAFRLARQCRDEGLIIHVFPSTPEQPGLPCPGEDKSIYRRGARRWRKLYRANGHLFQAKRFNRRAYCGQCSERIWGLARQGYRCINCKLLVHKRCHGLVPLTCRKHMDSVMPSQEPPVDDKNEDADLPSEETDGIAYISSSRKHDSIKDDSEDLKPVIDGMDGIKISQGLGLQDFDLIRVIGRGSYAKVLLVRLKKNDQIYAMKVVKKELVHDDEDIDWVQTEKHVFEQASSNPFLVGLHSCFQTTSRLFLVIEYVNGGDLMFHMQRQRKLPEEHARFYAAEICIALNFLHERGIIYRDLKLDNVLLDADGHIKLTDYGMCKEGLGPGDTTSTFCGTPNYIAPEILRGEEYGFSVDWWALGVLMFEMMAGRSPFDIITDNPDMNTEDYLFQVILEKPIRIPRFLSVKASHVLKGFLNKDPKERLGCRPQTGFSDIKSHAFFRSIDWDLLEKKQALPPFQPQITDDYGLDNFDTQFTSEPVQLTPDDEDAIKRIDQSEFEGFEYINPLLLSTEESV
Assay [19] deals with Rho-associated protein kinase 1 (Homo sapiens) (UniProt Q13464). Nature of the assay: Inhibition of recombinant human GST-tagged ROCK1 (1 to 535 residues) expressed in baculovirus expression system using Ser/Thr 07 as substrate at 10 uM incubated for 60 mins by Z'-Lyte assay relative to control.
Assay [20] concerns the target Inhibitor of nuclear factor kappa-B kinase subunit alpha (Homo sapiens) (UniProt O15111). Nature of the assay: Inhibition of recombinant human His-tagged full length IKKalpha expressed in baculovirus expression system at 10 uM incubated for 60 mins by Adapta assay relative to control.
Assay [21] has as its target Serine/threonine-protein kinase SIK2 (Homo sapiens) (UniProt Q9H0K1). The assay can be described thus: Inhibition of SIK2 (unknown origin) by selectscreen kinase assay. Conditions: dose 10.0 µM, time 60.0 min.
Assay [22] has as its target Rho-associated protein kinase 2 (Homo sapiens) (UniProt O75116). The assay can be described thus: Inhibition of recombinant human N-terminal GST-tagged ROCK2 (1 to 552 residues) expressed in baculovirus expression system using Ser/Thr 13 as substrate at 10 uM incubated for 60 mins by Z'-Lyte assay relative to control.
The target of assay [23] is Serine/threonine-protein kinase PAK 3 (Homo sapiens) (UniProt O75914). Nature of the assay: Inhibition of recombinant human His-tagged full length PAK3 expressed in baculovirus expression system using Ser/Thr 20 as substrate at 10 uM incubated for 60 mins by Z'-lyte assay relative to control.
Chain of Serine/threonine-protein kinase PAK 3 (Homo sapiens) (O75914 whole entry, looked up): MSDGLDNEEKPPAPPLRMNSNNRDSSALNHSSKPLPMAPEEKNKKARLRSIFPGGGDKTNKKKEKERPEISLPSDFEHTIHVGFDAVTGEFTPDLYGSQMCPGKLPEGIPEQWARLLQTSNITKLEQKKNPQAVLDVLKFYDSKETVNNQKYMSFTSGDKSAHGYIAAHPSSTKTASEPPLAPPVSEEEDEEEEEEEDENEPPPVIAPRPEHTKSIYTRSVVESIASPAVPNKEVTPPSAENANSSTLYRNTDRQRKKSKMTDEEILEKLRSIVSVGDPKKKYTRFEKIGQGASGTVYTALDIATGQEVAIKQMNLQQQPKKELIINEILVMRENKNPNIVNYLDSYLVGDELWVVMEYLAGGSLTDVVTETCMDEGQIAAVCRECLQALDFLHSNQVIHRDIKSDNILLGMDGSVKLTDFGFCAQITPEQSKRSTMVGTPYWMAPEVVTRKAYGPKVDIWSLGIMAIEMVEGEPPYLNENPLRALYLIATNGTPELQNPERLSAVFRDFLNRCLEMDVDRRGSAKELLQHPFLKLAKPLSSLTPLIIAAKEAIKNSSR

Among the data in ChEMBL document CHEMBL4665648, “Potent and selective inhibitors of receptor-interacting protein kinase 1 that lack an aromatic back pocket group” (Bioorg Med Chem Lett, 2019) are inhibition values, retold here.

One may read the inhibition as the relative decrease from the control value, in per cent.

Chain of Serine/threonine-protein kinase SIK2 (Homo sapiens) (Q9H0K1 whole entry, looked up, the tested form may be a part): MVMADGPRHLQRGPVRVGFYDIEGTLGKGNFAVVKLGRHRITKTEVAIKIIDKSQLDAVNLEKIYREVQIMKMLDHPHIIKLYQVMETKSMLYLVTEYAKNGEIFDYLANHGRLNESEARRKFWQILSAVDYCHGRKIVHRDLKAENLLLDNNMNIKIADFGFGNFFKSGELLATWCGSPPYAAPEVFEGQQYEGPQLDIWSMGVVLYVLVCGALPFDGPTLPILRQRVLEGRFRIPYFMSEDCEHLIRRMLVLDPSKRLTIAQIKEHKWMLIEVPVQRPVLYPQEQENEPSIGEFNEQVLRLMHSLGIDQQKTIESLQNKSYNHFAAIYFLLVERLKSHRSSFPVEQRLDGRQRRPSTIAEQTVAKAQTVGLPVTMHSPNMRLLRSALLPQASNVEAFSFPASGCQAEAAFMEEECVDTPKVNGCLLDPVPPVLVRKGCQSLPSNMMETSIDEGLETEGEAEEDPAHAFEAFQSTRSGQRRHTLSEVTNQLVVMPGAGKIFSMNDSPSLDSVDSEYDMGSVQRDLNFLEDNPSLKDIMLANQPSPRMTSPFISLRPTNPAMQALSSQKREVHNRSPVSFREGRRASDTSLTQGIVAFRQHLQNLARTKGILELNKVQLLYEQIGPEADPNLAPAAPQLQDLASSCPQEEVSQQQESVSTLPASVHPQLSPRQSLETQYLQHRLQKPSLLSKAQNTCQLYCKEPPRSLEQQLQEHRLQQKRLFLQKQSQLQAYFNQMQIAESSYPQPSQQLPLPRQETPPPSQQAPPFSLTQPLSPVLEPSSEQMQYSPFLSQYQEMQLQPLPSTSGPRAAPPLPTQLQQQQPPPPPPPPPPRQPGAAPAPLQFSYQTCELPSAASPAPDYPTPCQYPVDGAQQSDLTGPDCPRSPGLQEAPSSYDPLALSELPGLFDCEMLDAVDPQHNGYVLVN
Chain of Epithelial discoidin domain-containing receptor 1 (Homo sapiens) (Q08345 whole entry, the tested form may be a part): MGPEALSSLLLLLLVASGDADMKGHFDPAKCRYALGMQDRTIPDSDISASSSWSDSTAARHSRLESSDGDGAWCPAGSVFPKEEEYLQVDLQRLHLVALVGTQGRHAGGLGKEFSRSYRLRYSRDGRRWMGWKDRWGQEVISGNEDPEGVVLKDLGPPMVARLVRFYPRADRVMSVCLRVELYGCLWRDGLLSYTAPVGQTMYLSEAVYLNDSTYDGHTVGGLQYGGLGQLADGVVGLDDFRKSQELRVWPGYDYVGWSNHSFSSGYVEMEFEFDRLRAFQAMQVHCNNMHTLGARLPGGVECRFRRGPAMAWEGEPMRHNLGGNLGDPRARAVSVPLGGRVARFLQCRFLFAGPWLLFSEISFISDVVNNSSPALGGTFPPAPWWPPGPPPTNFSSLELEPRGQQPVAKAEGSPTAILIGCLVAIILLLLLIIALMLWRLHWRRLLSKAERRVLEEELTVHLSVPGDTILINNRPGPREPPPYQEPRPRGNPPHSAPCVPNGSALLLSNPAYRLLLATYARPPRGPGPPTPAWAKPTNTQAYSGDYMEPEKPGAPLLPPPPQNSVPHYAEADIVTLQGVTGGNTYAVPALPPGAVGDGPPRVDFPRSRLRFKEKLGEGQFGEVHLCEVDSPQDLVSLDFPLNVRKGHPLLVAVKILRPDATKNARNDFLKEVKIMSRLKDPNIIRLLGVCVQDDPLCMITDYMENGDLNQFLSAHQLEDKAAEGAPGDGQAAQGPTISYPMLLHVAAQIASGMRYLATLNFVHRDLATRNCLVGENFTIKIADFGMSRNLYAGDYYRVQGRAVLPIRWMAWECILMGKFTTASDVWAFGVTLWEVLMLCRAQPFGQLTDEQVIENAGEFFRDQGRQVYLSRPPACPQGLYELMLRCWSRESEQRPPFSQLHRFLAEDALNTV
Chain of Rho-associated protein kinase 2 (Homo sapiens) (O75116 whole entry, looked up, the tested form may be a part): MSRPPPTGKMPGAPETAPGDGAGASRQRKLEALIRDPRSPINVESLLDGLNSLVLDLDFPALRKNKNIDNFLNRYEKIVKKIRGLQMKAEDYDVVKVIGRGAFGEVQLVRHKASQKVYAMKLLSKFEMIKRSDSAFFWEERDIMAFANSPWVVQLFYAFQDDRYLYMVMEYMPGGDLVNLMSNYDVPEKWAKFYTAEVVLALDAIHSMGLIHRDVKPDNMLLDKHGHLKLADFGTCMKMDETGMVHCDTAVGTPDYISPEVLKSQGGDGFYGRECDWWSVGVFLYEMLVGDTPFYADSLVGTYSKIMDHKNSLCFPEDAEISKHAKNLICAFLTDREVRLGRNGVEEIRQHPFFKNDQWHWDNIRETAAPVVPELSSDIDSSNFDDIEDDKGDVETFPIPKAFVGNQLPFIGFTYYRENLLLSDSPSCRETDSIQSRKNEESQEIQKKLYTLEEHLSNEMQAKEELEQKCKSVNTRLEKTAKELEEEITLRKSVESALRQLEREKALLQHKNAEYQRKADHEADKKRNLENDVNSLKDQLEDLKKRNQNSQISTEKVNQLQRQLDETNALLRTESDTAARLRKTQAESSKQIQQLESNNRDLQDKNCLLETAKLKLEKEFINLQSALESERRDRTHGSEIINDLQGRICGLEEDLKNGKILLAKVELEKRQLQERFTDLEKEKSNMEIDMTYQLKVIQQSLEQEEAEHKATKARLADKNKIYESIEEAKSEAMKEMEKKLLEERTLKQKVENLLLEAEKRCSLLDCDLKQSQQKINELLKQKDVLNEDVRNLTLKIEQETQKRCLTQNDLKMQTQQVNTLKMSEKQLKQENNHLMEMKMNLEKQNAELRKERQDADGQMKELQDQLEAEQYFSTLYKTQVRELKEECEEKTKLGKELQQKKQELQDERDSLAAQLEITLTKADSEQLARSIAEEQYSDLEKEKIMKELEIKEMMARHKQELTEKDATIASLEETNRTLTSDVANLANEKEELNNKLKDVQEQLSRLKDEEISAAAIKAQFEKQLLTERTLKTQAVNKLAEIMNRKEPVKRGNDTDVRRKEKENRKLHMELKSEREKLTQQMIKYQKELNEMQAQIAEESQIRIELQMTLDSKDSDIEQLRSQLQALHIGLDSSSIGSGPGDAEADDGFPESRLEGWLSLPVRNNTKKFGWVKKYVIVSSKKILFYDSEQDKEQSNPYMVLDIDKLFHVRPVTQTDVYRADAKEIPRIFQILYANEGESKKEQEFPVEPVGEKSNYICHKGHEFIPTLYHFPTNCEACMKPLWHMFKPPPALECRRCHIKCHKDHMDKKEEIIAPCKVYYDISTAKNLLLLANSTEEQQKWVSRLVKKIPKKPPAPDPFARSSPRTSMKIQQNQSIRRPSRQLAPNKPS

Regarding `CN1C(=O)[C@@H](NC(=O)c2n[nH]c3ncc(C(F)(F)C(F)(F)F)cc23)COc2ccccc21`, the inhibition at TAK1/TAB1 (Homo sapiens) was 7.5%; in assay [1] it was 1.5%; in assay [2] it was 24%; in [3], 2%; in [4], 3.5%; in assay [5], -5%. For the same compound, the inhibition was -3.5% in [6]; 6% in [7]; 7% in assay [8]; 9% in assay [9]; 3% in assay [10]; 2.5% in assay [11]. For the same compound, the inhibition in [12] is 0.5%; in assay [13], -5%; in assay [14], 5%; in assay [15] it was 5%; in assay [16], -0.5%; in assay [17] it was 8.5%. Moreover, the inhibition is 5.5% in assay [18]; -8.5% in assay [19]; -4% in [20]; 3% in assay [21]; -3% in assay [22]; 8% in assay [23].
